Columns and labels:
[1] = organism: Mus musculus; test: Compound was evaluated for its effective dose in the oral mouse cholesterol biosynthesis assay.; assay type: functional
[2] = biological target: T1, Squalene synthase (Rattus norvegicus, UniProt Q02769); test: Inhibitory activity against squalene synthase in rat liver; not active
T1 sequence (Q02769 whole entry): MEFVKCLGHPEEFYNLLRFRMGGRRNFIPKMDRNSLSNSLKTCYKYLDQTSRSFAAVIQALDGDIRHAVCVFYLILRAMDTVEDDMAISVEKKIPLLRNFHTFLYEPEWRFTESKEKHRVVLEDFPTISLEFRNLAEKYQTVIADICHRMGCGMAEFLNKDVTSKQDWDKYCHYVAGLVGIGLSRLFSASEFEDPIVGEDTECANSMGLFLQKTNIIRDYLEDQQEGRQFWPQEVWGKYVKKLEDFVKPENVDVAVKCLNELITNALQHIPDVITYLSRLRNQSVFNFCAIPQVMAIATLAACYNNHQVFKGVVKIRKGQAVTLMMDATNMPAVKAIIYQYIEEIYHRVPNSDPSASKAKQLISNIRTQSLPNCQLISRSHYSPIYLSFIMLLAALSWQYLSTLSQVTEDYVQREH

[3] = organism: Rattus norvegicus; test: Dose required for inhibition of cholesterol biosynthesis in rats was determined; assay type: functional
[4] = test system: Mus musculus; test: Ability to inhibit mouse hepatic cholesterol biosynthesis when dosed orally at 6 mg/kg; assay type: functional; conditions: route oral
[5] = test system: Mus musculus; test: Ability to inhibit mouse hepatic cholesterol biosynthesis when dosed orally at 24 mg/kg; assay type: functional; conditions: route oral
[6] = test system: Mus musculus; test: Ability to inhibit mouse hepatic cholesterol biosynthesis when dosed orally at 12 mg/kg; assay type: functional; conditions: route oral
[7] = Mus musculus, po, read-out: ED50

Compound	Ki [2]	ED50 [1, 7]	other results
C=C(CCC12OC(C(=O)OC(C)C)C(O)(C(=O)OCOC(=O)C(C)(C)C)C(C(=O)O)(O1)[C@H](OC(=O)/C=C/[C@@H](C)C[C@@H](C)CC)[C@H]2O)[C@@H](OC(C)=O)[C@H](C)Cc1ccccc1 (stereo partly drawn)	Not Active	4 mg/kg	–
C=C(CCC12OC(C(=O)OCCC(C)C)C(O)(C(=O)OCOC(=O)C(C)(C)C)C(C(=O)O)(O1)[C@H](OC(=O)/C=C/[C@@H](C)C[C@@H](C)CC)[C@H]2O)[C@@H](OC(C)=O)[C@H](C)Cc1ccccc1 (stereo partly drawn)	Not Active	9 mg/kg	ED50 [1]: 9 mg/kg
C=C(CCC12OC(C(=O)OCC(=O)OC)C(O)(C(=O)OCOC(=O)C(C)(C)C)C(C(=O)O)(O1)[C@H](OC(=O)/C=C/[C@@H](C)C[C@@H](C)CC)[C@H]2O)[C@@H](OC(C)=O)[C@H](C)Cc1ccccc1 (stereo partly drawn)	Not Active	–	inhibition in vivo at 6 mg/kg [4]: 0%
C=C(CCC12OC(C(=O)OCCOC)C(O)(C(=O)OCOC(=O)C(C)(C)C)C(C(=O)O)(O1)[C@H](OC(=O)/C=C/[C@@H](C)C[C@@H](C)CC)[C@H]2O)[C@@H](OC(C)=O)[C@H](C)Cc1ccccc1 (stereo partly drawn)	Not Active	–	inhibition in vivo at 6 mg/kg [4]: 18%
C=C(CCC12OC(C(=O)OCCC(C)C)C(O)(C(=O)OCOC(C)=O)C(C(=O)O)(O1)[C@H](OC(=O)/C=C/[C@@H](C)C[C@@H](C)CC)[C@H]2O)[C@@H](OC(C)=O)[C@H](C)Cc1ccccc1 (stereo partly drawn)	–	6 mg/kg	–
C=C(CCC12OC(C(=O)O)C(O)(C(=O)OCOC(=O)C(C)(C)C)C(C(=O)O)(O1)[C@H](OC(=O)/C=C/[C@@H](C)C[C@@H](C)CC)[C@H]2O)[C@@H](OC(C)=O)[C@H](C)Cc1ccccc1 (stereo partly drawn)	–	–	inhibition in vivo at 24 mg/kg [5]: 0%
C=C(CCC12OC(C(=O)NC(C)C)C(O)(C(=O)OCOC(=O)C(C)(C)C)C(C(=O)O)(O1)[C@H](OC(=O)/C=C/[C@@H](C)C[C@@H](C)CC)[C@H]2O)[C@@H](OC(C)=O)[C@H](C)Cc1ccccc1 (stereo partly drawn)	–	–	inhibition in vivo at 24 mg/kg [5]: 41%
C=C(CCC12OC(C(=O)NCCOC)C(O)(C(=O)OCOC(=O)C(C)(C)C)C(C(=O)O)(O1)[C@H](OC(=O)/C=C/[C@@H](C)C[C@@H](C)CC)[C@H]2O)[C@@H](OC(C)=O)[C@H](C)Cc1ccccc1 (stereo partly drawn)	Not Active	–	inhibition in vivo at 12 mg/kg [6]: 18%
C=C(CCC12OC(C(=O)OCC(=O)OC(C)(C)C)C(O)(C(=O)OCOC(=O)C(C)(C)C)C(C(=O)O)(O1)[C@H](OC(=O)/C=C/[C@@H](C)C[C@@H](C)CC)[C@H]2O)[C@@H](OC(C)=O)[C@H](C)Cc1ccccc1 (stereo partly drawn)	Not Active	–	inhibition in vivo at 24 mg/kg [5]: 45%
C=C(CCC12OC(C(=O)O)C(O)(C(=O)O)C(C(=O)O)(O1)[C@H](OC(=O)/C=C/[C@@H](C)C[C@@H](C)CC)[C@H]2O)[C@@H](OC(C)=O)[C@H](C)Cc1ccccc1 (stereo partly drawn) [ZARAGOZIC ACID A]	–	100 mg/kg	–

Second part, led by results:

Ki [2]	Compound	ED50 [1, 7]	other results
Not Active	C=C(CCC12OC(C(=O)OCCC)C(O)(C(=O)OCOC(=O)C(C)(C)C)C(C(=O)O)(O1)[C@H](OC(=O)/C=C/[C@@H](C)C[C@@H](C)CC)[C@H]2O)[C@@H](OC(C)=O)[C@H](C)Cc1ccccc1 (stereo partly drawn)	2 mg/kg	–
Not Active	C=C(CCC12OC(C(=O)OC)C(O)(C(=O)OCOC(=O)C(C)(C)C)C(C(=O)O)(O1)[C@H](OC(=O)/C=C/[C@@H](C)C[C@@H](C)CC)[C@H]2O)[C@@H](OC(C)=O)[C@H](C)Cc1ccccc1 (stereo partly drawn)	3.3 mg/kg	–
Not Active	C=C(CCC12OC(C(=O)OCC)C(O)(C(=O)OCOC(=O)C(C)(C)C)C(C(=O)O)(O1)[C@H](OC(=O)/C=C/[C@@H](C)C[C@@H](C)CC)[C@H]2O)[C@@H](OC(C)=O)[C@H](C)Cc1ccccc1 (stereo partly drawn)	2.6 mg/kg	ED50 [3]: 18 mg/kg
Not Active	C=CCOC(=O)C1OC2(CCC(=C)[C@@H](OC(C)=O)[C@H](C)Cc3ccccc3)OC(C(=O)O)([C@H](OC(=O)/C=C/[C@@H](C)C[C@@H](C)CC)[C@H]2O)C1(O)C(=O)OCOC(=O)C(C)(C)C (stereo partly drawn)	2 mg/kg	–
Not Active	C=C(CCC12OC(C(=O)OCCCC)C(O)(C(=O)OCOC(=O)C(C)(C)C)C(C(=O)O)(O1)[C@H](OC(=O)/C=C/[C@@H](C)C[C@@H](C)CC)[C@H]2O)[C@@H](OC(C)=O)[C@H](C)Cc1ccccc1 (stereo partly drawn)	–	inhibition in vivo at 6 mg/kg [4]: 18%

— ChEMBL document CHEMBL1128778 (Bioorg Med Chem Lett, 1995)
